Test results from US9695155B2, “Herbicidal substituted pyrimidinyloxy benzene compounds” (E. I. DU PONT DE NEMOURS AND COMPANY, priority 2013, dated 2017).

Assays:
lambsquarters [1] = assay: Test C preemergence; assay type: in vivo, Chenopodium album; conditions: for Lambsquarters plant response rating: preemergence, scale 0 (no effect) to 100 (complete control)
Source text: (§1) Seeds of plant species selected from blackgrass (Alopecurus myosuroides), Italian ryegrass (Lolium multiflorum), wheat, winter (winter wheat, Triticum aestivum), galium (catchweed bedstraw, Galium aparine), corn (Zea mays), large (Lg) crabgrass (Digitaria sanguinalis), giant foxtail (Setaria faberii), johnsongrass (Sorghum halepense), lambsquarters (Chenopodium album), morningglory (Ipomoea coccinea), yellow nutsedge (Cyperus esculentus), pigweed (Amaranthus retroflexus), ragweed (common ragweed, Ambrosia elatior), soybean (Glycine max), barnyardgrass (Echinochloa crus-galli), oilseed rape (Brassica napus), waterhemp (common waterhemp, Amaranthus rudis), kochia (Kochia scoparia), wild oat (Avena fatua), surinam grass (Brachiaria decumbens), foxtail, green (green foxtail, Setaria viridis), goosegrass (Eleusine indica), bromegrass, downy (downy bromegrass, Bromus tectorum), nightshade (eastern black nightshade, Solanum ptycanthum), cocklebur (common cocklebur, Xanthium strumarium), cupgrass, woolly (woolly cupgrass, Eriochloa villosa), bermudagrass (Cynodon dactylon), sunflower, (common oilseed sunflower, Helianthus annuus), Russian thistle (Salsola kali), and velvetleaf (Abutilon theophrasti) were planted into a blend of loam soil and sand and treated preemergence with test chemicals formulated in a non-phytotoxic solvent mixture which included a surfactant.
(§2) At the same time, plants selected from these crop and weed species and also barley, winter (winter barley, Hordeum vulgare), windgrass (Apera spica-venti), chickweed (common chickweed, Stellaria media), deadnettle (henbit deadnettle, Lamium amplexicaule), and canarygrass (littleseed canarygrass, Phalaris minor) were planted in pots containing Redi-Earth® planting medium (Scotts Company, 14111 Scottslawn Road, Marysville, Ohio 43041) comprising spaghnum peat moss, vermiculite, wetting agent and starter nutrients and treated with postemergence applications of test chemicals formulated in the same manner. Plants ranged in height from 2 to 18 cm (1- to 4-leaf stage) for postemergence treatments. Treated plants and controls were maintained in a greenhouse for 13 to 15 days, after which time all species were compared to controls and visually evaluated. Plant response ratings, summarized in Table C, are based on a scale of 0 to 100 where 0 is no effect and 100 is complete control. A dash (-) response means no test result.

corn = assay: Test A postemergence; assay type: in vivo, Zea mays
Summary of the method: (§3)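 Visual injury scored 0–100 (100 = complete control) against untreated controls about 10 days after treatment in a greenhouse. Test chemicals, formulated with surfactant in non-phytotoxic solvent, were sprayed on soil preemergence or on 2-10 cm, one- to two-leaf plants postemergence.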

giant foxtail = assay: Test A postemergence; assay type: in vivo, Setaria faberii
Summary of the method: as §3

wheat = assay: Test A preemergence; assay type: in vivo, Triticum aestivum
Summary of the method: as §3

lambsquarters [2] = assay: Test C postemergence; assay type: in vivo, Chenopodium album
Summary of the method: (§4)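 Visual injury score versus untreated controls, 0 = no effect, 100 = complete control, taken 13 to 15 days after treatment in the greenhouse. Pre-emergence pots held loam/sand; post-emergence plants grew in sphagnum peat/vermiculite mix and were sprayed at the 1- to 4-leaf stage.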

pigweed [3] = assay: Test C preemergence; assay type: in vivo, Amaranthus retroflexus; conditions: for Pigweed plant response rating: preemergence, scale 0 (no effect) to 100 (complete control)
Summary of the method: as §4

velvetleaf = assay: Test A postemergence; assay type: in vivo, Abutilon theophrasti
Summary of the method: as §3

yellow nutsedge = assay: Test C preemergence; assay type: in vivo, Cyperus esculentus; conditions: for Nutsedge, Yellow plant response rating: preemergence, scale 0 (no effect) to 100 (complete control)
Source text: as §1, §2

morningglory = assay: Test C postemergence; assay type: in vivo, Ipomoea coccinea
Summary of the method: as §4

ragweed = assay: Test C preemergence; assay type: in vivo, Ambrosia elatior; conditions: for Ragweed plant response rating: preemergence, scale 0 (no effect) to 100 (complete control)
Source text: as §1, §2

large (Lg) crabgrass = assay: Test A postemergence; assay type: in vivo, Digitaria sanguinalis
Summary of the method: as §3

kochia = assay: Test C postemergence; assay type: in vivo, Kochia scoparia
Summary of the method: as §4

pigweed [4] = assay: Test A preemergence; assay type: in vivo, Amaranthus retroflexus
Summary of the method: as §3

galium = assay: Test C postemergence; assay type: in vivo, Galium aparine; conditions: Galium, post-emergence
Summary of the method: as §4

[5] = Preemergence, 31 g ai/ha, scale 0 to 100, 0 no effect, 100 complete control
[6] = 125 g ai/ha, 0 to 100 scale where 0 is no effect and 100 is complete control
[7] = 500 g ai/ha, 0 to 100 scale, 0 no effect, 100 complete control
[8] = 500 g ai/ha, 0 to 100 scale, 0 no effect, 100 complete control, approx. 10 days
[9] = Postemergence, 31 g ai/ha, scale 0 to 100 (0 no effect, 100 complete control), 13 to 15 days
[10] = Postemergence, 62 g ai/ha, scale 0 to 100 (0 no effect, 100 complete control)
[11] = 31 g ai/ha, postemergence, visual rating, scale 0 to 100 (0 no effect, 100 complete control), 13 to 15 days

## FC(F)(F)c1cnn(-c2ccccc2Oc2ncc(Cl)cn2)c1 [Compound 16]
Lambsquarters [1]; 62 g ai/ha
  Lambsquarters plant response rating: 80
Lambsquarters [1]; 125 g ai/ha
  Lambsquarters plant response rating: 80
Lambsquarters [1]; 250 g ai/ha
  Lambsquarters plant response rating: 90
Lambsquarters [1]; [5]
  Plant response rating, Lambsquarters: 20
corn; [6]
  Plant response rating, Corn: 70
corn; [7]
  Plant response rating, Corn: 80
Giant foxtail; [6]
  Plant response rating, Foxtail, Giant: 100
Giant foxtail; [7]
  Plant response rating, Foxtail, Giant: 100
wheat; [6]
  Wheat plant response rating: 20
wheat; [8]
  Wheat plant response rating: 60
Lambsquarters [2]; 125 g ai/ha, postemergence
  Plant response rating (0 to 100), Lambsquarters: 100
Lambsquarters [2]; 250 g ai/ha, postemergence
  Plant response rating (0 to 100), Lambsquarters: 100
Lambsquarters [2]; [9]
  Plant response rating, Lambsquarters: 75
Lambsquarters [2]; [10]
  Plant response rating, Lambsquarters: 100
Pigweed [3]; 62 g ai/ha
  Pigweed plant response rating: 100
Pigweed [3]; 125 g ai/ha
  Pigweed plant response rating: 100
Pigweed [3]; 250 g ai/ha
  Pigweed plant response rating: 100
Pigweed [3]; [5]
  Plant response rating, Pigweed: 100
velvetleaf; [6]
  Plant response rating, Velvetleaf: 100
velvetleaf; [7]
  Plant response rating, Velvetleaf: 100
Yellow nutsedge; 62 g ai/ha
  Nutsedge, Yellow plant response rating: 25
Yellow nutsedge; 125 g ai/ha
  Nutsedge, Yellow plant response rating: 65
Yellow nutsedge; 250 g ai/ha
  Nutsedge, Yellow plant response rating: 65
Yellow nutsedge; [5]
  Plant response rating, Nutsedge, Yellow: 15
morningglory; 125 g ai/ha, postemergence
  Plant response rating (0 to 100), Morningglory: 80
morningglory; 250 g ai/ha, postemergence
  Plant response rating (0 to 100), Morningglory: 85
morningglory; [9]
  Plant response rating, Morningglory: 65
morningglory; [10]
  Plant response rating, Morningglory: 80
ragweed; 62 g ai/ha
  Ragweed plant response rating: 25
ragweed; 125 g ai/ha
  Ragweed plant response rating: 55
ragweed; 250 g ai/ha
  Ragweed plant response rating: 60
ragweed; [5]
  Plant response rating, Ragweed: 0
Large (Lg) crabgrass; [6]
  Plant response rating, Crabgrass, Large: 80
Large (Lg) crabgrass; [7]
  Plant response rating, Crabgrass, Large: 100
kochia; 125 g ai/ha, postemergence
  Plant response rating (0 to 100), Kochia: 98
kochia; 250 g ai/ha, postemergence
  Plant response rating (0 to 100), Kochia: 100
kochia; [9]
  Plant response rating, Kochia: 35
kochia; [10]
  Plant response rating, Kochia: 80
Pigweed [4]; [6]
  Pigweed plant response rating: 100
Pigweed [4]; [8]
  Pigweed plant response rating: 100

## Fc1cccc(Oc2ncc(Cl)cn2)c1-n1cc(Br)cn1 [Compound 178, 2-[2-(4-bromo-1H-pyrazol-1-yl)-3-fluorophenoxy]-5-chloropyrimidine]
corn; Zea mays, post-emergence, 240 h, 125 g ai/ha, 0 to 100 scale where 0 is no effect and 100 is complete control, read-out: Corn plant response rating
  plant injury at 125 g/ha: 30%
corn; Zea mays, post-emergence, 240 h, 500 g ai/ha, 0 to 100 scale where 0 is no effect and 100 is complete control
  Corn plant response rating (crop injury, 0 = no effect, 100 = complete kill) at 500 g/ha: 70%
Giant foxtail; Setaria faberi, post-emergence, 240 h, 125 g ai/ha, 0 to 100 scale where 0 is no effect and 100 is complete control, read-out: Foxtail, Giant plant response rating
  pest or weed control at 125 g/ha: 90%
Giant foxtail; Setaria faberi, post-emergence, 240 h, 500 g ai/ha, 0 to 100 scale where 0 is no effect and 100 is complete control, read-out: Plant response rating, Foxtail, Giant
  pest or weed control at 500 g/ha: 100%
galium; 16 g ai/ha, postemergence, 0 is no effect, 100 is complete control, read-out: Plant response rating (0 to 100), Galium
  pest or weed control at 16 g/ha: 80%
galium; 31 g ai/ha, postemergence, visual rating, scale 0 to 100 (0 no effect, 100 complete control), 13 to 15 days, read-out: Galium plant response rating
  pest or weed control at 31 g/ha: 75%
galium; 125 g ai/ha, postemergence, visual rating, scale 0 to 100 (0 no effect, 100 complete control), read-out: Plant response rating, Galium
  pest or weed control at 125 g/ha: 98%
galium; Postemergence, 62 g ai/ha, scale 0 to 100 (0 no effect, 100 complete control), read-out: Plant response rating, Galium
  pest or weed control at 62 g/ha: 85%
wheat; 125 g ai/ha
  Wheat plant response rating (0 to 100 scale): 0
wheat; Triticum aestivum, pre-emergence, 240 h, 500 g ai/ha, 0 to 100 scale where 0 is no effect and 100 is complete control, read-out: Wheat plant response rating
  plant injury at 500 g/ha: 40%
Lambsquarters [2]; [11]
  Lambsquarters plant response rating: 80
Lambsquarters [2]; Chenopodium album, post-emergence, 16 g ai/ha, postemergence, 0 is no effect, 100 is complete control, read-out: Plant response rating (0 to 100), Lambsquarters
  pest or weed control at 16 g/ha: 70%
Lambsquarters [2]; Chenopodium album, post-emergence, 125 g ai/ha, postemergence, visual rating, scale 0 to 100 (0 no effect, 100 complete control), read-out: Plant response rating, Lambsquarters
  pest or weed control at 125 g/ha: 98%
Lambsquarters [2]; Chenopodium album, post-emergence, Postemergence, 62 g ai/ha, scale 0 to 100 (0 no effect, 100 complete control), read-out: Plant response rating, Lambsquarters
  pest or weed control at 62 g/ha: 85%
velvetleaf; [6]
  Velvetleaf plant response rating: 100
velvetleaf; Abutilon theophrasti, post-emergence, 240 h, 500 g ai/ha, 0 to 100 scale where 0 is no effect and 100 is complete control, read-out: Plant response rating, Velvetleaf
  pest or weed control at 500 g/ha: 100%
morningglory; [11]
  Morningglory plant response rating: 70
morningglory; Ipomoea, post-emergence, 16 g ai/ha, postemergence, 0 is no effect, 100 is complete control, read-out: Plant response rating (0 to 100), Morningglory
  pest or weed control at 16 g/ha: 10%
morningglory; Ipomoea, post-emergence, 125 g ai/ha, postemergence, visual rating, scale 0 to 100 (0 no effect, 100 complete control), read-out: Plant response rating, Morningglory
  pest or weed control at 125 g/ha: 65%
morningglory; Ipomoea, post-emergence, Postemergence, 62 g ai/ha, scale 0 to 100 (0 no effect, 100 complete control), read-out: Plant response rating, Morningglory
  pest or weed control at 62 g/ha: 85%
Large (Lg) crabgrass; [6]
  Crabgrass, Large plant response rating: 90
Large (Lg) crabgrass; Digitaria sanguinalis, post-emergence, 240 h, 500 g ai/ha, 0 to 100 scale where 0 is no effect and 100 is complete control, read-out: Plant response rating, Crabgrass, Large
  pest or weed control at 500 g/ha: 100%
kochia; Bassia scoparia, post-emergence, 16 g ai/ha, postemergence, 0 is no effect, 100 is complete control, read-out: Plant response rating (0 to 100), Kochia
  pest or weed control at 16 g/ha: 60%
kochia; Bassia scoparia, post-emergence, 31 g ai/ha, postemergence, visual rating, scale 0 to 100 (0 no effect, 100 complete control), 13 to 15 days, read-out: Kochia plant response rating
  pest or weed control at 31 g/ha: 90%
kochia; Bassia scoparia, post-emergence, 125 g ai/ha, postemergence, visual rating, scale 0 to 100 (0 no effect, 100 complete control), read-out: Plant response rating, Kochia
  pest or weed control at 125 g/ha: 95%
kochia; Bassia scoparia, post-emergence, Postemergence, 62 g ai/ha, scale 0 to 100 (0 no effect, 100 complete control), read-out: Plant response rating, Kochia
  pest or weed control at 62 g/ha: 95%
Pigweed [4]; 125 g ai/ha
  Pigweed plant response rating (0 to 100 scale): 100
Pigweed [4]; Amaranthus retroflexus, pre-emergence, 240 h, 500 g ai/ha, 0 to 100 scale where 0 is no effect and 100 is complete control, read-out: Pigweed plant response rating
  pest or weed control at 500 g/ha: 100%
